Test results from patent US20070142352A1, “Pteridinone Derivatives as Modulators of Chemokine Receptor Activity” (ASTRAZENECA AB, priority 2001, published 2007).

Compound | melting point
C[C@H](CO)Nc1nc(SCc2cccc(F)c2F)nc2[nH]c(=O)c(NCCO)nc12 [Example 1, 2-[[(2,3-difluorophenyl)methyl]thio]-6-[(2-hydroxyethyl)amino]-4-[[(1R)-2-hydroxy-1-methylethyl]amino]-7(8H)-pteridinone] | 197 to 199 °C
C[C@H](CO)Nc1nc(SCc2cccc(F)c2F)nc2[nH]c(=O)c(NCc3ccccc3)nc12 [Example 2, 2-[[(2,3-difluorophenyl)methyl]thio]-4-[[(1R)-2-hydroxy-1-methylethyl]amino]-6-[(phenylmethyl)amino]-7(8H)-pteridinone] | 80 to 100 °C
